Key:
[1] = tested on: colonic inflammation induced by TNBS/ethanol; assay: Myeloperoxidase (MPO) activity of the colon wall, TNBS/ethanol-induced colitis (Example 1); assay type: in vivo, WISTAR rats; conditions: rats without TNBS/ethanol (0.9% NaCl instillation); intracolonic infusion for 4 days
Excerpt: (§1) This colitis is characterized by an increase in myeloperoxidase (MPO) activity, a marker of the degree of infiltration of polynuclear neutrophils in the colonic mucosa, and by the increase in the macroscopic lesion score (MLS) taking into account the seriousness and the extent of the macroscopic lesions appearing, the presence and seriousness of adherences and the presence or nonpresence of diarrhea in the colon.
The effects of a treatment with a nitric oxide donor, sodium nitroprusside (SNP), or with L. farciminis on a TNBS-induced colitis in rats were compared. Moreover, the effective role of exogenous nitric oxide in these effects was evaluated using an NO scavenger, hemoglobin (Hb). […]
The myeloperoxidase (MPO) activity is determined on colon samples isolated according to the protocol described by BRADLEY et al. (J. Invest. Dermatol., 78, 206-209, 1982). […]
The MPO activity is determined by spectrophotometry. […] The changes in absorbance. (450 nm, 25° C.) were determined by kinetic spectrophotometry of 2 minutes, according to the balanced equation for the enzymatic reaction catalyzed by MPO: H2O2+Cl^−=H2O+HOCl (orange color), and expressed as MPO units.
One MPO activity unit is defined as the quantity of MPO degrading 1 μmol of hydrogen peroxide per minute per milliliter at 25° C. […]

[2] = tested on: colonic inflammation induced by TNBS/ethanol; assay: Macroscopic lesion score (MLS) of the colon, TNBS/ethanol-induced colitis (Example 1); assay type: in vivo, WISTAR rats; conditions: rats instilled with TNBS/ethanol, 4 days after instillation; daily intracolonic infusion; SNP 1 mg/kg/day, Hb 200 mg/kg/day
Excerpt: as §1
For the study of the effects of SNP, 7 groups of WISTAR rats of 200-250 grams were provided, under anesthetic, with an intracolonic catheter (+2 cm from the caeco-colonic junction) exteriorized at the level of the dorsoscapular region. At D+5, the rats receive an intracolonic instillation of 80 mg/kg/day of TNBS/ethanol (groups 4-7) or of a 0.9% NaCl solution (groups 1-3). 4 hours after the instillation, the rats are infused at a flow rate of 250 μl/hour with 1 mg/kg/day of SNP (groups 2 and 5), or 200 mg/kg/day of Hb (groups 3 and 7), or an SNP+Hb mixture (group 6), or a 0.9% NaCl solution (groups 1 and 4), for 4 days. […]
The macroscopic lesion score (MLS) is determined on isolated colonic samples as described by WALLACE et al., (Gastroenterology, 102, 18-27, 1992) according to the assessment grid below: […]

Substance: hemoglobin [Hb]
- MPO activity of the colon wall [1]: 426±117 MPO U/g of proteins
- Macroscopic lesion score (MLS) [2]: 5.8±1.3
